{"source": "patent US12059000B1", "about": "“Use of erythritol compositions as mammal-safe insecticides” (Drexel University, priority 2020, dated 2024)", "key": {"fruit flies [1]": {"tested_on": "fruit flies", "assay": "Comparison of erythritol with other sweet alcohols, fly longevity", "type": "in vivo, Drosophila melanogaster", "settings": "1 M in standard fly food, 17 days", "procedure": "An experiment was conducted to compare the effectiveness of erythritol with other human-safe sweet alcohols: D-mannitol, maltitol, sucrose, and xylitol. The concentration of all sweet alcohols were 1M.\nFlies were raised for 17 days on standard fly food that contained 1 M concentrations of each sweetener treatment. Death of flies was recorded daily as before; each treatment was replicated on three vials of 10 flies each for 30 subjects/treatment. Differences in longevity were analyzed using the Kaplan-Meier survival analysis log rank test, making all pairwise comparisons among treatments."}, "Drosophila melanogaster [2]": {"tested_on": "Drosophila melanogaster", "assay": "Erythritol concentration trials on fly longevity", "type": "in vivo", "procedure": "Standard fly foods were prepared as previously described, and then were treated with 2M, 1M, 0.5M and 0.1M concentrations of erythritol, using 0.5M sucrose as control. 0 to 24 hour-old Drosophila were placed on these foods and mortality was recorded daily for 35 days as above. Analyses were conducted with SPSS software v. 20 (IBM corporation 2011). Fly longevity data were analyzed using survival analysis with right-hand censoring of subjects that lived to the end of the study or were lost for reasons other than death. Test were run for differences in survival distributions [Pr(flies alive) versus insect age] using the log-rank (Mantel-Cox) test to make all pairwise comparisons among treatments within each experiment."}, "Drosophila melanogaster [3]": {"tested_on": "Drosophila melanogaster", "assay": "Two-way choice experiments, fly longevity", "type": "in vivo", "procedure": "Foods containing 2 M erythritol, 1M erythritol and 1M sucrose were prepared for paired presentations in open choice tests. In each treatment one food type contained 0.05% brilliant blue FCF (Fisher 50-727-25). The blue dye allowed visual confirmation of feeding on the dyed food in the pair. The flies were presented with access to two food choices by using a modified cotton stopper with approximately a 1.5 cm diameter hole to connect each pair of food tubes.\nThe final choice treatment was between blue 2M erythritol food and non-blue 1M sucrose food (this treatment provides a comparison with the 1M erythritol/1M erythritol treatment as a test of dilution of toxicity by alternative food sources; blue guts would confirm erythritol was being consumed in the presence of sucrose). The number of flies with visible blue gut contents and mortality daily were recorded for 30 days.\nAnalyses were conducted with SPSS software v. 20 (IBM corporation 2011). Fly longevity data were analyzed using survival analysis with right-hand censoring of subjects that lived to the end of the study or were lost for reasons other than death. Test were run for differences in survival distributions [Pr(flies alive) versus insect age] using the log-rank (Mantel-Cox) test to make all pairwise comparisons among treatments within each experiment."}, "fruit flies [4]": {"tested_on": "fruit flies", "settings": "0.5 M erythritol food, previous work; cited from earlier work"}, "[5]": {"settings": "humans, even in high concentrations; cited from earlier work"}, "Drosophila melanogaster [6]": {"tested_on": "Drosophila melanogaster", "assay": "Drosophila longevity assay on food containing sweeteners", "type": "in vivo", "settings": "repeat with blue food, 0.0238 g/ml", "procedure": "All animals were cultured at 25° C., kept at 50-60% humidity, and were raised under a standard 12:12 light dark cycle. For each experimental treatment, n=30 flies were tested in groups of 10 per tube, and three tubes per treatment. Tubes were kept on their side to minimize subject becoming mired in the food. Foods were replaced twice a week. The total number of fruit flies used for these experiments was 780, with 300 used for two initial trials testing mortality among store-brand sweeteners, 210 used for repeating this with blue dye and pure erythritol, 120 for choice trials and 150 for concentration trials.\nStandard Drosophila food for larval culturing consisted of water, cornmeal, yeast, molasses, and agar, as previously described (Chakraborty, et al., 2011, PLoS ONE 6: e20799). […] The addition of cornmeal and yeast assured the flies still received sufficient carbohydrates and protein in addition to any effects of the treatment additives.\nDrosophila food was combined with an equal weight/volume (0.0238 g/ml) of one non-nutritive sweetener (TRUVIA, EQUAL, SPLENDA, SWEET'NLOW, or PUREVIA) or a control nutritive sweetener (controls: sucrose or corn syrup). Wild type (Canton S) larvae were initially raised on the standard food, and 0-12 hour old adult flies were transferred to foods containing one non-nutritive sweetener or a control treatment. […] The number of dead flies were scored daily."}, "R. flavipes workers": {"tested_on": "R. flavipes workers", "assay": "Termite survival experiment on erythritol-treated paper", "type": "in vivo, Reticulitermes flavipes", "procedure": "Termites used in the survival and choice experiments were collected from three field colonies in Scotland Run Park (39.66° N, 75.05° W) in Clayton, NJ between April and May 2019. After collection, colonies were maintained in plastic containers with soil and wood from the collection site as a substrate in laboratory conditions (20.8±0.9° C., 49±7% RH). Termites used in the consumption experiment were collected from a single field colony at Cobb's Creek Park (39.94° N, 75.24° W) in Philadelphia, PA during September of 2018. Workers were removed from the log and housed within 24 h of collection in 9 cm diameter petri dishes containing damp paper towel as a food source. Dishes were placed in an incubator at 26° C. (relative humidity varied between 40 and 60% across trials, but was consistent among all treatments within each trial). Each petri dish contained 10 workers. Termites used in all experiments measured 3-4 mm in length.\nFor the survival experiment, unbleached, brown paper towels (12 cmx 24 cm, cat no. 01801, Kimberly-Clark Corporation, Neenah, WI), were completely submerged for 15 s in solution of distilled water, erythritol (100% purity, NOW foods, Bloomingdale, IL) of the below-specified concentrations, and 0.05% Brilliant Blue R-250 dye (cat. no 27816, Sigma-Aldrich, St. Louis, MO). The erythritol concentrations used were: 0 M (control), 0.25 M, 0.5 M, 0.75 M, 1.0 M, and 1.25 M. The treated paper towels were removed from solution and allowed to dry horizontally on racks before being cut into squares with an area of 144 cm^2. […]\nFollowing the pretrial period, the experiment was set up: pretrial paper towels were removed and replaced with treated paper towels of the correct erythritol treatment concentration; these were rehydrated with 750 μL of distilled water. […] Termite mortality was recorded every 24 h for 8 d.\nAnalyses were performed using SPSS v. […] Mean percent mortality was calculated for each concentration across colonies at 72 and 96 h and a three parameter, best-fit sigmoid curve was fitted to the data in Sigmaplot to assess LC at these time points."}}, "note": "“Also recorded” adds a separate entry of the source.", "data": [{"smiles": "OC[C@@H](O)[C@@H](O)[C@H](O)[C@H](O)CO", "note": "[D-mannitol]", "values": [{"measurement": "fly longevity / insecticidal effect compared to sucrose control", "setting": "fruit flies [1]", "result": "did not differ from sugar control; also recorded: slightly but significantly reduced longevity; also recorded: almost insignificant insecticidal effect"}]}, {"smiles": "OC[C@@H](O)[C@@H](O)CO", "note": "[erythritol, (2R,3S)-butane-1,2,3,4-tetraol]", "values": [{"measurement": "longevity compared to control food containing 0.5M sucrose", "setting": "Drosophila melanogaster [2]; 0.1M in food, 35 days", "result": "no significant difference in longevity"}, {"measurement": "dose response of fly longevity (FIG. 4)", "setting": "Drosophila melanogaster [2]; 0.1M, 0.5M, 1.0M and 2.0M in food", "result": "significant decrease in longevity of adult flies as concentration of erythritol was increased; also recorded: dose-dependent reduction in longevity"}, {"measurement": "longevity compared to control food containing 0.5M sucrose", "setting": "Drosophila melanogaster [2]; 0.5M in food, 35 days", "result": "significant reductions in longevity"}, {"measurement": "longevity compared to control food containing 0.5M sucrose", "setting": "Drosophila melanogaster [2]; 1M in food, 35 days", "result": "significant reductions in longevity"}, {"measurement": "longevity compared to all other treatments", "setting": "Drosophila melanogaster [2]; 2M in food, 35 days", "result": "significant and severe effect on longevity"}, {"measurement": "longevity relative to sucrose:sucrose choice (FIG. 5)", "setting": "Drosophila melanogaster [3]; choice between 1M sucrose and 1M erythritol", "result": "significant decrease in longevity; also recorded: significantly decreased longevity"}, {"measurement": "longevity relative to sucrose:sucrose choice (FIG. 5)", "setting": "Drosophila melanogaster [3]; choice between 1M sucrose and 2M erythritol", "result": "significant decrease in longevity; also recorded: significantly reduced"}, {"measurement": "time to 50% mortality", "setting": "fruit flies [4]", "result": 20, "unit": "days"}, {"measurement": "fly longevity / insecticidal effect compared to sucrose control", "setting": "fruit flies [1]", "result": "toxic to fruit flies upon ingestion"}, {"measurement": "mean fly longevity", "setting": "fruit flies [1]", "result": "4.7 ± 0.15", "unit": "days"}, {"measurement": "safety of consumption", "setting": "[5]", "result": "safe to humans"}, {"measurement": "longevity compared to PUREVIA, EQUAL, sucrose and corn syrup (FIG. 3)", "setting": "Drosophila melanogaster [6]", "result": "significant decrease in longevity"}, {"measurement": "longevity of workers to 8 d, erythritol treatments versus 0M control (FIG. 9)", "setting": "R. flavipes workers; 0.25-1.25 M treated paper, 8 d", "result": "All treatments are significantly different from 0 M; also recorded: differed significantly"}, {"measurement": "lowest concentration with significant effects on longevity", "setting": "R. flavipes workers; R. flavipes workers, 8 d", "result": 0.25, "unit": "M"}, {"measurement": "time to 50% mortality", "setting": "R. flavipes workers; termites, 0.5 M erythritol filter papers", "result": "≤ 2", "unit": "days"}]}, {"smiles": "OC[C@@H](O)[C@@H](O[C@H]1O[C@H](CO)[C@@H](O)[C@H](O)[C@H]1O)[C@H](O)[C@@H](O)CO", "note": "[maltitol]", "values": [{"measurement": "fly longevity / insecticidal effect compared to sucrose control", "setting": "fruit flies [1]", "result": "did not differ from sugar control; also recorded: did not differ from the control; also recorded: not effective at reducing fly longevity"}]}, {"smiles": "OC[C@@H](O)[C@H](O)[C@@H](O)CO", "note": "[xylitol]", "values": [{"measurement": "fly longevity / insecticidal effect compared to sucrose control", "setting": "fruit flies [1]", "result": "did not differ from sugar control; also recorded: did not differ from the control; also recorded: not effective at reducing fly longevity"}]}]}
